The term solubility denotes the concentration that dissolves in the medium under given conditions.

Series [1] has as its system Staphylococcus aureus NCTC 13373 (mecA-positive; methicillin-resistant). The series is described as follows: In vitro antibacterial activity, MIC (UCL School of Pharmacy assay), MRSA. The class given is cell-based. Conditions: for MIC: Staphylococcus aureus. The procedure, abridged: (§1)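 Strains: MRSA NCTC 13373, MSSA ATCC 25923, vanA E. faecalis ATCC 51299. Overnight agar growth suspended in PBS, A600 0.1, diluted 1:100 into isosensitest broth; 2-fold compound dilutions 32–0.03 μg/mL, ≤2% DMSO. Vancomycin QC.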

Series [2] deals with S. aureus ATCC 25923 (methicillin-susceptible). The series is described as follows: In vitro antibacterial activity, MIC (UCL), MSSA. To be noted: Staphylococcus aureus. The class given is cell-based, Staphylococcus aureus. In a few lines:
as §1

Series [3] has as its system Enterococcus faecalis ATCC 51299 (vanA-positive; vancomycin-resistant). The series is described as follows: In vitro antibacterial activity, MIC (UCL), VRE. In kind it is cell-based. In a few lines: as §1
A further series in a line: Aqueous solubility. The class given is physicochemical. Conditions: for solubility: thermodynamic from solid. The source says: To guide our initial SAR exploration work, we obtained liver microsomal intrinsic clearance data for 5 of the 18 compounds assayed by CO-ADD (Supporting Information - CDCO Report and Supporting Information - Biology). We then acquired intrinsic clearance (CLint), plasma protein binding (PPB), and solubility data on further compounds throughout the SAR campaign (Supporting Information - Biology, Tables S3 and S4). […] The more polar compounds (lower LogD) had reduced PPB and were more metabolically stable.
(§2) Table S4. ADME and Pharmacokinetics: compounds only appearing in the Supplementary […]
(§3) MRSA Aqueous HLM CLint Rat Hep CLint
(§4) Cmpd MIC Solubility Human PPB (%) (µL/min/mg (µL/min/10x6 LogD7.4
(§5) (µg/mL) (µM) protein) cells)
(§6) ADME and toxicity for compounds were measured according to procedures outlined in the manuscript submitted in parallel to this one;2 other procedures were used for those compounds analysed by Monash University (in vitro ADME) or UCL (toxicity), both described in the main

Series [4] in a line: Human plasma protein binding (PPB). The class given is in vitro ADME. Conditions: human, plasma.
Description: (§7) To guide our initial SAR exploration work, we obtained liver microsomal intrinsic clearance data for 5 of the 18 compounds assayed by CO-ADD (Supporting Information - CDCO Report and Supporting Information - Biology). We then acquired intrinsic clearance (CLint), plasma protein binding (PPB), and solubility data on further compounds throughout the SAR campaign (Supporting Information - Biology, Tables S3 and S4).
as §2, §3, §4, §5, §6

Series [5] in a line: Human liver microsome intrinsic clearance. In kind it is in vitro ADME.
Description: as §7, §2, §3, §4, §5, §6
A general note: Liver microsomes are a subcellular fraction often used to study metabolism.

Series [6] is described as follows: Rat hepatocyte intrinsic clearance. The class given is in vitro ADME.
Description: as §7, §2, §3, §4, §5, §6

Series [7] relates to MRC-5SV2 (human lung fibroblast cell line). The series is described as follows: Toxicity against MRC-5SV2. The class given is cell-based. To be noted: MRC5 cells. As to the method: as §6
The subject of series [8] is PMM (primary mouse macrophages). The series is described as follows: Toxicity against PMM. In kind it is cell-based. Conditions: PMM. Here is the method: as §6
[9] abbreviates: NEU, read-out: Aqueous Solubility (NEU).
Where [10] appears, read: human plasma, NEU, read-out: Human PPB (NEU) (converted).
Setting [11] is: human liver microsomes, NEU, read-out: HLM CLint (NEU).
Setting [12] is: rat hepatocytes, NEU, read-out: Rat Hep CLint (NEU).
Where [13] appears, read: read-out: Human PPB (converted).
Where [14] appears, read: human, liver microsomes, read-out: HLM CLint.
[15] abbreviates: rat, hepatocytes, Figure 4, read-out: Rat Hep CLint.

In brackets after ≈: the same amount, converted by molar mass. Like-named read-outs stand apart in the source and are kept apart here. A value given as a limit tells only on which side of the number the result lay.

For the compound `Fc1ccc(N(CC2CC2)c2c(-c3ccccn3)nc3ccccn23)cc1` [OSA_000979], the MIC came to 2 µg/mL (≈ 5.58 µM) in series [1] (UCL, read-out: MRSA MIC (UCL)); 2 µg/mL (≈ 5.58 µM) in [2] (read-out: MSSA MIC (UCL)); 4 µg/mL (≈ 11.2 µM) in series [3] (read-out: VRE MIC (UCL)). Moreover, in “Aqueous solubility” (setting [9]), the solubility was 2 µM (≈ 0.717 µg/mL). Further, in series [4] (setting [10]), the fraction unbound is 0.0067. The microsomal CLint in [5] (setting [11]) stood at 105 µL/min/mg. Besides, the “Rat Hep CLint (NEU)” value in [6] (rat hepatocytes, NEU) stood at 141 uL/min/10x6 cells. For the same compound, the “MRC5 TC50” value in series [7] amounted to 7.8 µM. Further, in series [8], the “PMM TC50” value amounted to 4 µM.

For `COc1ccc2nc(-c3ccccn3)c(N(C)c3ccc(F)cc3)n2c1` [OSA_000980], the MIC in series [1] (UCL, read-out: MRSA MIC (UCL)) is 4 µg/mL (≈ 11.5 µM); in [2] (read-out: MSSA MIC (UCL)) it was 4 µg/mL (≈ 11.5 µM); in series [3] (read-out: VRE MIC (UCL)), 8 µg/mL (≈ 23 µM). For the same compound, in “Aqueous solubility” (setting [9]), the solubility amounted to 17 µM (≈ 5.92 µg/mL). For the same compound, the fraction unbound in [4] (setting [10]) was 0.02. In addition, in series [5] (human liver microsomes, NEU), the “HLM CLint (NEU)” value turned out to be 251 uL/min/mg protein. In series [6] (setting [12]), the hepatocyte CLint was over 300 µL/min/1e6 cells. In addition, in [7], the “MRC5 TC50” value came out at 2 µM. For the same compound, the “PMM TC50” value in series [8] came out at 8 µM.

Take `CCN(c1ccc(F)cc1)c1c(-c2ccccn2)nc2ccccn12` [OSA_000981]: the MIC came out at 2 µg/mL (≈ 6.02 µM) in series [1] (UCL, read-out: MRSA MIC (UCL)); 2 µg/mL (≈ 6.02 µM) in series [2] (read-out: MSSA MIC (UCL)); 8 µg/mL (≈ 24.1 µM) in series [3] (read-out: VRE MIC (UCL)). The solubility in the series “Aqueous solubility” (setting [9]) is 31 µM (≈ 10.3 µg/mL). Besides, the fraction unbound in [4] (setting [10]) was 0.022. In [5] (human liver microsomes, NEU), the “HLM CLint (NEU)” value stood at 180 uL/min/mg protein. Also, the hepatocyte CLint in series [6] (setting [12]) was determined as 148 µL/min/1e6 cells. The “MRC5 TC50” value in series [7] amounted to 4.9 µM. Besides, in series [8], the “PMM TC50” value was found to be 8 µM.

With `CCCN(c1ccc(F)cc1)c1c(-c2ccccn2)nc2ccccn12` [OSA_000982], the MIC was 2 µg/mL (≈ 5.77 µM) in [1] (UCL, read-out: MRSA MIC (UCL)); 2 µg/mL (≈ 5.77 µM) in series [2] (read-out: MSSA MIC (UCL)); 4 µg/mL (≈ 11.5 µM) in [3] (read-out: VRE MIC (UCL)). In addition, in “Aqueous solubility” (NEU), the “Aqueous Solubility (NEU)” value was determined as 3 µM. In addition, in series [4] (setting [10]), the fraction unbound was 0.0073. Moreover, the “HLM CLint (NEU)” value in [5] (human liver microsomes, NEU) was found to be 61.8 uL/min/mg protein. Moreover, the “Rat Hep CLint (NEU)” value in series [6] (rat hepatocytes, NEU) worked out at 108 uL/min/10x6 cells. Further, in [7], the “MRC5 TC50” value is 4.3 µM. In addition, in [8], the “PMM TC50” value is 2 µM.

For the compound `COc1ccnc(-c2nc3ccccn3c2N(C)c2ccc(F)cc2)c1` [OSA_001007], the MIC is 8 µg/mL (≈ 23 µM) in series [1] (UCL, read-out: MRSA MIC (UCL)) and 8 µg/mL (≈ 23 µM) in series [2] (read-out: MSSA MIC (UCL)). Further, in “Aqueous solubility” (setting [9]), the solubility was 26 µM (≈ 9.06 µg/mL). In addition, the fraction unbound in series [4] (setting [10]) was 0.025. The microsomal CLint in [5] (setting [11]) was found to be 214 µL/min/mg. The hepatocyte CLint in [6] (setting [12]) was over 300 µL/min/1e6 cells.

For `CC(=O)N(c1ccc(F)cc1)c1c(-c2ccccn2)nc2ccccn12` [OSA_001021], the MIC is over 32 µg/mL in series [1] (UCL assay, read-out: MRSA MIC (ug/mL) (UCL)) and over 32 µg/mL in series [2] (UCL assay, read-out: MSSA MIC (ug/mL) (UCL)). The solubility in the series “Aqueous solubility” (NEU, read-out: Aqueous Solubility (uM) (NEU)) was 10 µM (≈ 3.46 µg/mL). In addition, the fraction unbound in [4] (human plasma, NEU, read-out: Human PPB (%) (NEU) (converted)) was 0.17. In addition, in series [5] (human liver microsomes, NEU), the “HLM CLint (uL/min/mg protein) (NEU)” value stood at 19.8 uL/min/mg protein. For the same compound, in series [6] (rat hepatocytes, NEU), the “Rat Hep CLint (uL/min/10x6 cells) (NEU)” value is recorded as 81.2 uL/min/10x6 cells. In addition, the “MRC5 TC50” value in series [7] came out at 64 µM. Also, the “PMM TC50” value in series [8] was determined as 64 µM.

As for `CS(=O)(=O)c1ccc(-c2c(-c3ccccn3)nc3n2CCC3)cc1` [compound 837], the “activity against MRSA, in words” value in series [1] is reported as “not tolerated”. The MIC is over 32 µg/mL in [1] (16 h, read-out: MRSA MIC); over 32 µg/mL in series [1] (read-out: MRSA MIC); over 32 µg/mL in series [3] (read-out: VRE MIC). Further, the solubility in the series “Aqueous solubility” (read-out: Aqueous Solubility) came to 317 µM (≈ 108 µg/mL). For the same compound, the fraction unbound in series [4] (setting [13]) is 0.4. The microsomal CLint in [5] (setting [14]) was under 3 µL/min/mg. The hepatocyte CLint in series [6] (setting [15]) is under 1 µL/min/1e6 cells.

For the compound `C[S+]([O-])c1ccc(-c2c(-c3ccccn3)nc3n2CCC3)cc1` (stereo not shown) [compound 838], the MIC in series [1] (16 h, read-out: MRSA MIC) was over 32 µg/mL; in series [1] (read-out: MRSA MIC), over 32 µg/mL; in [3] (read-out: VRE MIC), over 32 µg/mL. In the series “Aqueous solubility” (read-out: Aqueous Solubility), the solubility worked out at 756 µM (≈ 245 µg/mL). Also, the fraction unbound in [4] (setting [13]) is 0.45. Also, the microsomal CLint in [5] (setting [14]) is under 3 µL/min/mg. Further, in series [6] (setting [15]), the hepatocyte CLint is under 1 µL/min/1e6 cells.

`CN(C)C(=O)c1ccc(-c2c(-c3ccccn3)nc3n2CCC3)cc1` [compound 974]: the “activity against MRSA, in words” value in series [1] is given as “not tolerated”. Besides, the MIC in series [1] (16 h, read-out: MRSA MIC) is over 32 µg/mL; in series [1] (read-out: MRSA MIC) it was over 32 µg/mL; in series [3] (read-out: VRE MIC), over 32 µg/mL. In “Aqueous solubility” (read-out: Aqueous Solubility), the solubility is 782 µM (≈ 260 µg/mL). Moreover, the fraction unbound in [4] (setting [13]) was 0.55. The microsomal CLint in [5] (setting [14]) is under 3 µL/min/mg. Also, the hepatocyte CLint in series [6] (setting [15]) is under 1 µL/min/1e6 cells.

The record behind these values is publication PMC10714399, “Open Source Antibiotics: Simple Diarylimidazoles Are Potent against Methicillin-Resistant Staphylococcus aureus” (ACS Infectious Diseases, 2023).
